Measurements published in US9951063B2, “8-(piperazin-1-yl)-1,2,3,4-tetrahydro-isoquinoline derivatives” (IDORSIA PHARMACEUTICALS LTD, priority 2014, dated 2018).

target: human CXCR3A (Homo sapiens (Human), UniProt P49682); experiment: FLIPR assay (inhibition of CXCL10-induced calcium signal); format: cell-based; conditions: engineered CHO-K1 cells expressing human CXCR3A coupled to Galpha(16); Fluo-4-AM; CXCL10 agonist 20 nM; mean values where determined several times
Experimental: The bioactivity of compounds is tested in a fluorometric imaging plate reader (FLIPR: Molecular Devices) using engineered CHO-K1 cells expressing the human CXCR3A (GenBank: AY242128) coupled to a G protein (Galpha(16)). Cells are plated the day prior to bioassay in F12 medium supplemented with 10% FBS and G418 and hygromycin antibiotics to maintain recombinant selection. At the day of bioassay, cells are washed and dye loaded for one hour with Fluo-4-AM (Invitrogen) in Hanks Balanced Salt Solution (Invitrogen), buffered with 20 mM Hepes at pH 7.4 and sodium bicarbonate (0.038%), containing 5 mM probenecid. This buffer, but lacking the dye and containing probenecid at a concentration of 2.5 mM, is also used for washing steps (wash buffer); or lacking both dye and probenecid but supplemented with 0.1% BSA for compound dilution steps (dilution buffer). Cells are washed free of excess dye and 60 microliter of wash buffer is added. Stock solutions of test compounds are made up at a concentration of 10 mM in DMSO, and serially diluted in dilution buffer to concentrations required for inhibition dose response curves. After a 10 minute incubation period at 37° C., 10 microliters of each compound dilution are transferred from a compound plate to the plate containing the recombinant cells in the FLIPR instrument according to the manufacturer's instructions. Following basal readings, 10 microliter CXCL10 agonist at a concentration of 20 nM (from Peprotech) is added, again using the FLIPR instrument. Changes in fluorescence are monitored before and after addition of the test compounds. Emission peak values above base level after CXCL10 addition are exported after base line subtraction.
The calculated IC50 values may fluctuate depending on the daily assay performance. Fluctuations of this kind are known to those skilled in the art. In the case where IC50 values have been determined several times for the same compound, mean values are given.

Chain of human CXCR3A (P49682 whole entry): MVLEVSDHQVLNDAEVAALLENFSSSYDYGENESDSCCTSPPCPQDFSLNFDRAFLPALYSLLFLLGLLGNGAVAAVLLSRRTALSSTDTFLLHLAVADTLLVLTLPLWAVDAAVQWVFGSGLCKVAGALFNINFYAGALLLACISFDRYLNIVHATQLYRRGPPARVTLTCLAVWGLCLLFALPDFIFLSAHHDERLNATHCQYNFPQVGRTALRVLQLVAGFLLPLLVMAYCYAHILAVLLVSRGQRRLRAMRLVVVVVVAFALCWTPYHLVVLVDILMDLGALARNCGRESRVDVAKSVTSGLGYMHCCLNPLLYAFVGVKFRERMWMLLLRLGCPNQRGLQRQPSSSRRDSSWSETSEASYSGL

Q: Which IC50 does the source give for `C[C@@H]1CN(c2ccc(C(F)(F)F)c3c2CN(c2cnc(C4CC4)nc2)CC3)CCN1C(=O)Cn1ncc2cccnc21` [Example 47, 1-{(R)-4-[2-(2-Cyclopropyl-pyrimidin-5-yl)-5-trifluoromethyl-1,2,3,4-tetrahydro-isoquinolin-8-yl]-2-methyl-piperazin-1-yl}-2-pyrazolo[3,4-b]pyridin-1-yl-ethanone] here?
A: 7.27 nM

Q: Which IC50 does the source give for `Cc1ccn(CC(=O)N2CCN(c3ccc(C(F)(F)F)c4c3CN(c3cnc(C5CC5)nc3)CC4)C[C@H]2C)n1` [Example 48, 1-{(R)-4-[2-(2-Cyclopropyl-pyrimidin-5-yl)-5-trifluoromethyl-1,2,3,4-tetrahydro-isoquinolin-8-yl]-2-methyl-piperazin-1-yl}-2-(3-methyl-pyrazol-1-yl)-ethanone] here?
A: 1.4 nM

Q: Which IC50 does the source give for `Cc1ccnn1CC(=O)N1CCN(c2ccc(C(F)(F)F)c3c2CN(c2cnc(C4CC4)nc2)CC3)C[C@H]1C` [Example 49, 1-{(R)-4-[2-(2-Cyclopropyl-pyrimidin-5-yl)-5-trifluoromethyl-1,2,3,4-tetrahydro-isoquinolin-8-yl]-2-methyl-piperazin-1-yl}-2-(5-methyl-pyrazol-1-yl)-ethanone] here?
A: 3.56 nM

Q: Which IC50 does the source give for `Cc1nc(C)n(CC(=O)N2CCN(c3ccc(C(F)(F)F)c4c3CN(c3cnc(N(C)C)nc3)CC4)C[C@H]2C)n1` [Example 50, 1-{(R)-4-[2-(2-Dimethylamino-pyrimidin-5-yl)-5-trifluoromethyl-1,2,3,4-tetrahydro-isoquinolin-8-yl]-2-methyl-piperazin-1-yl}-2-(3,5-dimethyl-[1,2,4]triazol-1-yl)-ethanone] here?
A: 2.26 nM

Q: `Cc1ccn(CC(=O)N2CCN(c3ccc(C(F)(F)F)c4c3CN(c3cnc(N(C)C)nc3)CC4)C[C@H]2C)n1` [Example 51, 1-{(R)-4-[2-(2-Dimethylamino-pyrimidin-5-yl)-5-trifluoromethyl-1,2,3,4-tetrahydro-isoquinolin-8-yl]-2-methyl-piperazin-1-yl}-2-(3-methyl-pyrazol-1-yl)-ethanone] was tested. Which IC50 did it give?
A: 4.93 nM

Q: `Cc1ccnn1CC(=O)N1CCN(c2ccc(C(F)(F)F)c3c2CN(c2cnc(N(C)C)nc2)CC3)C[C@H]1C` [Example 52, 1-{(R)-4-[2-(2-Dimethylamino-pyrimidin-5-yl)-5-trifluoromethyl-1,2,3,4-tetrahydro-isoquinolin-8-yl]-2-methyl-piperazin-1-yl}-2-(5-methyl-pyrazol-1-yl)-ethanone] was tested. Which IC50 did it give?
A: 4.1 nM

Q: For `C[C@@H]1CN(c2ccc(C(F)(F)F)c3c2CN(c2cnc(N(C)C)nc2)CC3)CCN1C(=O)Cn1ncc2cccnc21` [Example 53, 1-{(R)-4-[2-(2-Dimethylamino-pyrimidin-5-yl)-5-trifluoromethyl-1,2,3,4-tetrahydro-isoquinolin-8-yl]-2-methyl-piperazin-1-yl}-2-pyrazolo[3,4-b]pyridin-1-yl-ethanone], which IC50 is on record?
A: 6.15 nM

Q: How did the IC50 turn out when `CCOc1ncc(N2CCc3c(C(F)(F)F)ccc(N4CCN(C(=O)Cn5nc(C)nc5C)[C@H](C)C4)c3C2)cn1` [Example 54, 2-(3,5-Dimethyl-[1,2,4]triazol-1-yl)-1-{(R)-4-[2-(2-ethoxy-pyrimidin-5-yl)-5-trifluoromethyl-1,2,3,4-tetrahydro-isoquinolin-8-yl]-2-methyl-piperazin-1-yl}-ethanone] was run?
A: 6.22 nM

Q: Which IC50 does the source give for `CCOc1ncc(N2CCc3c(C(F)(F)F)ccc(N4CCN(C(=O)Cn5nc(C)cc5C)[C@H](C)C4)c3C2)cn1` [Example 55, 2-(3,5-Dimethyl-pyrazol-1-yl)-1-{(R)-4-[2-(2-ethoxy-pyrimidin-5-yl)-5-trifluoromethyl-1,2,3,4-tetrahydro-isoquinolin-8-yl]-2-methyl-piperazin-1-yl}-ethanone] here?
A: 10 nM

Q: Which IC50 does the source give for `Cc1cc(C)n(CC(=O)N2CCN(c3ccc(C(F)(F)F)c4c3CN(c3ncc(-c5ccccc5)o3)CC4)C[C@H]2C)n1` [Example 56, 2-(3,5-Dimethyl-pyrazol-1-yl)-1-{(R)-2-methyl-4-[2-(5-phenyl-oxazol-2-yl)-5-trifluoromethyl-1,2,3,4-tetrahydro-isoquinolin-8-yl]-piperazin-1-yl}-ethanone] here?
A: 8.14 nM

Q: Which IC50 does the source give for `Cc1cc(C)n(CC(=O)N2CCN(c3ccc(C(F)(F)F)c4c3CN(c3nc5ccccc5s3)CC4)C[C@H]2C)n1` [Example 57, 1-[(R)-4-(2-Benzothiazol-2-yl-5-trifluoromethyl-1,2,3,4-tetrahydro-isoquinolin-8-yl)-2-methyl-piperazin-1-yl]-2-(3,5-dimethyl-pyrazol-1-yl)-ethanone] here?
A: 26.5 nM

Q: How did the IC50 turn out when `CCc1ncc(N2CCc3c(C(F)(F)F)ccc(N4CCN(C(=O)Cn5nc(C)nc5C)[C@H](C)C4)c3C2)cn1` [Example 58, 2-(3,5-Dimethyl-[1,2,4]triazol-1-yl)-1-{(R)-4-[2-(2-ethyl-pyrimidin-5-yl)-5-trifluoromethyl-1,2,3,4-tetrahydro-isoquinolin-8-yl]-2-methyl-piperazin-1-yl}-ethanone] was run?
A: 16.9 nM

Q: How did the IC50 turn out when `Cc1nc(C)n(CC(=O)N2CCN(c3ccc(C(F)(F)F)c4c3CN(c3cnc(C(F)(F)F)nc3)CC4)C[C@H]2C)n1` [Example 59, 2-(3,5-Dimethyl-[1,2,4]triazol-1-yl)-1-{(R)-2-methyl-4-[5-trifluoromethyl-2-(2-trifluoromethyl-pyrimidin-5-yl)-1,2,3,4-tetrahydro-isoquinolin-8-yl]-piperazin-1-yl}-ethanone] was run?
A: 12.3 nM

Q: Which IC50 does the source give for `C[C@@H]1CN(c2cccc3c2CN(C(=O)OCc2ccccc2)CC3)CCN1C(=O)Cn1cnc2cccnc21` [Example 60, 8-[(R)-4-(2-Imidazo[4,5-b]pyridin-3-yl-acetyl)-3-methyl-piperazin-1-yl]-3,4-dihydro-1H-isoquinoline-2-carboxylic acid benzyl ester] here?
A: 7.94 nM

Q: For `C[C@@H]1CN(c2cccc3c2CN(C(=O)C2CC2)CC3)CCN1C(=O)Cn1cnc2cccnc21` [Example 61, 1-[(R)-4-(2-Cyclopropanecarbonyl-1,2,3,4-tetrahydro-isoquinolin-8-yl)-2-methyl-piperazin-1-yl]-2-imidazo[4,5-b]pyridin-3-yl-ethanone], which IC50 is on record?
A: 223 nM

Q: Which IC50 does the source give for `COc1ccc(C(=O)N2CCc3cccc(N4CCN(C(=O)Cn5cnc6cccnc65)[C@H](C)C4)c3C2)cc1` [Example 62, 2-Imidazo[4,5-b]pyridin-3-yl-1-{(R)-4-[2-(4-methoxy-benzoyl)-1,2,3,4-tetrahydro-isoquinolin-8-yl]-2-methyl-piperazin-1-yl}-ethanone] here?
A: 121 nM

Q: For `C[C@@H]1CN(c2cccc3c2CN(C(=O)Cc2cccnc2)CC3)CCN1C(=O)Cn1cnc2cccnc21` [Example 63, 2-Imidazo[4,5-b]pyridin-3-yl-1-{(R)-2-methyl-4-[2-(2-pyridin-3-yl-acetyl)-1,2,3,4-tetrahydro-isoquinolin-8-yl]-piperazin-1-yl}-ethanone], which IC50 is on record?
A: 668 nM

Q: `COc1ccc(CCC(=O)N2CCc3cccc(N4CCN(C(=O)Cn5cnc6cccnc65)[C@H](C)C4)c3C2)cc1` [Example 64, 1-{8-[(R)-4-(2-Imidazo[4,5-b]pyridin-3-yl-acetyl)-3-methyl-piperazin-1-yl]-3,4-dihydro-1H-isoquinolin-2-yl}-3-(4-methoxy-phenyl)-propan-1-one] was tested. Which IC50 did it give?
A: 188 nM

Q: How did the IC50 turn out when `C[C@@H]1CN(c2cccc3c2CN(C(=O)c2cocn2)CC3)CCN1C(=O)Cn1cnc2cccnc21` [Example 65, 2-Imidazo[4,5-b]pyridin-3-yl-1-{(R)-2-methyl-4-[2-(oxazole-4-carbonyl)-1,2,3,4-tetrahydro-isoquinolin-8-yl]-piperazin-1-yl}-ethanone] was run?
A: 483 nM

Q: With `C[C@@H]1CN(c2cccc3c2CN(C(=O)Cn2ccc4ccccc42)CC3)CCN1C(=O)Cn1cnc2cccnc21` [Example 66, 2-Imidazo[4,5-b]pyridin-3-yl-1-{(R)-4-[2-(2-indol-1-yl-acetyl)-1,2,3,4-tetrahydro-isoquinolin-8-yl]-2-methyl-piperazin-1-yl}-ethanone] as the compound, how does the IC50 read?
A: 304 nM

Q: With `CC(C)C(=O)N1CCc2cccc(N3CCN(C(=O)Cn4cnc5cccnc54)[C@H](C)C3)c2C1` [Example 67, 1-{8-[(R)-4-(2-Imidazo[4,5-b]pyridin-3-yl-acetyl)-3-methyl-piperazin-1-yl]-3,4-dihydro-1H-isoquinolin-2-yl}-2-methyl-propan-1-one] as the compound, how does the IC50 read?
A: 614 nM

Q: For `COCC(=O)N1CCc2cccc(N3CCN(C(=O)Cn4cnc5cccnc54)[C@H](C)C3)c2C1` [Example 68, 2-Imidazo[4,5-b]pyridin-3-yl-1-{(R)-4-[2-(2-methoxy-acetyl)-1,2,3,4-tetrahydro-isoquinolin-8-yl]-2-methyl-piperazin-1-yl}-ethanone], which IC50 is on record?
A: 599 nM

Q: For `C[C@@H]1CN(c2cccc3c2CN(C(=O)C2CCCC2)CC3)CCN1C(=O)Cn1cnc2cccnc21` [Example 69, 1-[(R)-4-(2-Cyclopentanecarbonyl-1,2,3,4-tetrahydro-isoquinolin-8-yl)-2-methyl-piperazin-1-yl]-2-imidazo[4,5-b]pyridin-3-yl-ethanone], which IC50 is on record?
A: 21.7 nM

Q: `C[C@@H]1CN(c2cccc3c2CN(C(=O)C2CCCCC2)CC3)CCN1C(=O)Cn1cnc2cccnc21` [Example 70, 1-[(R)-4-(2-Cyclohexanecarbonyl-1,2,3,4-tetrahydro-isoquinolin-8-yl)-2-methyl-piperazin-1-yl]-2-imidazo[4,5-b]pyridin-3-yl-ethanone] was tested. Which IC50 did it give?
A: 55.5 nM
